Results published in PubChem BioAssay AID2060902 (Molecular Pharmacology Branch, DTP, NCI, 2025).

Test system: 485368-065-R3-J5-PDC spheroids with HUVEC/MSC, viability
Test: Anticancer human tumor 485368-065-R3-J5-PDC patient-derived pancreatic carcinoma cell line growth inhibition [RAS]
Settings: for viability, T/C: stronger effect = lower value
How it was run: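 Tumour cells grown as complex spheroids with HUVEC endothelial cells and mesenchymal stem cells, treated with RAS pathway inhibitor combinations. Each agent spans half-log steps from near clinical Cmax, or 10 microM where Cmax is unknown.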

[1] = curve of first compound, second compound 0.00316 µM
[2] = curve of first compound, second compound 0.01 µM
[3] = curve of first compound, second compound 0.0316 µM
[4] = curve of first compound, second compound 0.1 µM
[5] = curve of first compound, second compound 0.316 µM
[6] = curve of first compound, second compound 1 µM
[7] = second compound 0.00316 µM, first compound 0.0316 µM
[8] = second compound 0.00316 µM, first compound 0.1 µM
[9] = second compound 0.00316 µM, first compound 0.316 µM
[10] = second compound 0.00316 µM, first compound 1 µM
[11] = second compound 0.01 µM, first compound 0.0316 µM
[12] = second compound 0.01 µM, first compound 0.1 µM
[13] = second compound 0.01 µM, first compound 0.316 µM
[14] = second compound 0.01 µM, first compound 1 µM
[15] = second compound 0.0316 µM, first compound 0.0316 µM
[16] = second compound 0.0316 µM, first compound 0.1 µM
[17] = second compound 0.0316 µM, first compound 0.316 µM
[18] = second compound 0.0316 µM, first compound 1 µM
[19] = second compound 0.1 µM, first compound 0.0316 µM
[20] = second compound 0.1 µM, first compound 0.1 µM
[21] = second compound 0.1 µM, first compound 0.316 µM
[22] = second compound 0.1 µM, first compound 1 µM
[23] = second compound 0.316 µM, first compound 0.0316 µM
[24] = second compound 0.316 µM, first compound 0.1 µM
[25] = second compound 0.316 µM, first compound 0.316 µM
[26] = second compound 0.316 µM, first compound 1 µM
[27] = second compound 1 µM, first compound 0.0316 µM
[28] = second compound 1 µM, first compound 0.1 µM
[29] = second compound 1 µM, first compound 0.316 µM
[30] = second compound 1 µM, first compound 1 µM
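Further: spheroids exposed to agents for seven days before readout.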

CCn1c(-c2cc(N3CCN(C)CC3)cnc2C(C)OC)c2c3cc(ccc31)-c1csc(n1)CC(NC(=O)C1CC1C)C(=O)N1CCCC(N1)C(=O)OCC(C)(C)C2 (stereo not given) was tested, and the viability, T/C (compound 0.000949 µM) was 35.5% [middle of 8 runs], the viability, T/C (compound 0.003 µM) was 22.9% [middle of 8 runs] and the viability, T/C (compound 0.00949 µM) was 17.3% [middle of 8 runs]. For the same compound, the viability, T/C (compound 0.03 µM) was 12.7% [middle of 8 runs], the viability, T/C (compound 0.0949 µM) was 10.3% [middle of 7 runs] and the viability, T/C (compound 0.3 µM) was 8.88% [middle of 8 runs]. It also gave an IC50 (compound alone, run of 07/09/2024) of under 0.949 nM.
In the case of CC(C)n1nc(-c2ccc3oc(N)nc3c2)c2c(N)ncnc21 + CCn1c(-c2cccnc2C(C)OC)c2c3cc(ccc31)N1CCOC(CC(NC(=O)C(C(C)C)N(C)C(=O)C3(F)CCN(C(=O)C#CC(C)(C)N(C)C)CC3)C(=O)N3CCCC(N3)C(=O)OCC(C)(C)C2)C1, the IC50 (curve of first compound, second compound 0.000949 µM) is reported as 21.7 nM, the IC50 (curve of first compound, second compound 0.003 µM) is reported as 19.1 nM and the IC50 (curve of first compound, second compound 0.00949 µM) is reported as 19.9 nM. It also gave an IC50 (curve of first compound, second compound 0.03 µM) of 21.7 nM, an IC50 (curve of first compound, second compound 0.0949 µM) of 21.2 nM and an IC50 (curve of first compound, second compound 0.3 µM) of 25.6 nM. The viability, T/C (second compound 0.000949 µM, first compound 0.000316 µM) was 93.8%, the viability, T/C (second compound 0.000949 µM, first compound 0.001 µM) was 107% and the viability, T/C (second compound 0.000949 µM, first compound 0.00316 µM) was 84.2%. It also gave a viability, T/C (second compound 0.000949 µM, first compound 0.01 µM) of 73.4%, a viability, T/C (second compound 0.000949 µM, first compound 0.0316 µM) of 38.8% and a viability, T/C (second compound 0.000949 µM, first compound 0.1 µM) of 21.2%. It also gave a viability, T/C (second compound 0.003 µM, first compound 0.000316 µM) of 97.6%, a viability, T/C (second compound 0.003 µM, first compound 0.001 µM) of 97.3% and a viability, T/C (second compound 0.003 µM, first compound 0.00316 µM) of 85.6%. The viability, T/C (second compound 0.003 µM, first compound 0.01 µM) was 66.8%, the viability, T/C (second compound 0.003 µM, first compound 0.0316 µM) was 37.2% and the viability, T/C (second compound 0.003 µM, first compound 0.1 µM) was 19.4%. It also gave a viability, T/C (second compound 0.00949 µM, first compound 0.000316 µM) of 88.2%, a viability, T/C (second compound 0.00949 µM, first compound 0.001 µM) of 115% and a viability, T/C (second compound 0.00949 µM, first compound 0.00316 µM) of 85.9%. It also gave a viability, T/C (second compound 0.00949 µM, first compound 0.01 µM) of 66.6%, a viability, T/C (second compound 0.00949 µM, first compound 0.0316 µM) of 40.2% and a viability, T/C (second compound 0.00949 µM, first compound 0.1 µM) of 19.4%. It also gave a viability, T/C (second compound 0.03 µM, first compound 0.000316 µM) of 92%, a viability, T/C (second compound 0.03 µM, first compound 0.001 µM) of 96.3% and a viability, T/C (second compound 0.03 µM, first compound 0.00316 µM) of 96.2%. The viability, T/C (second compound 0.03 µM, first compound 0.01 µM) was 78.1%, the viability, T/C (second compound 0.03 µM, first compound 0.0316 µM) was 36.4% and the viability, T/C (second compound 0.03 µM, first compound 0.1 µM) was 22.1%. It also gave a viability, T/C (second compound 0.0949 µM, first compound 0.000316 µM) of 89.3%, a viability, T/C (second compound 0.0949 µM, first compound 0.001 µM) of 98.2% and a viability, T/C (second compound 0.0949 µM, first compound 0.00316 µM) of 96.6%. It also gave a viability, T/C (second compound 0.0949 µM, first compound 0.01 µM) of 69.1%, a viability, T/C (second compound 0.0949 µM, first compound 0.0316 µM) of 40.3% and a viability, T/C (second compound 0.0949 µM, first compound 0.1 µM) of 19.5%. The viability, T/C (second compound 0.3 µM, first compound 0.000316 µM) was 97.3%, the viability, T/C (second compound 0.3 µM, first compound 0.001 µM) was 99.4% and the viability, T/C (second compound 0.3 µM, first compound 0.00316 µM) was 86.9%. The viability, T/C (second compound 0.3 µM, first compound 0.01 µM) was 75%, the viability, T/C (second compound 0.3 µM, first compound 0.0316 µM) was 43.9% and the viability, T/C (second compound 0.3 µM, first compound 0.1 µM) was 22.4%.
O=C(c1ccc(F)c(F)c1Nc1ccc(I)cc1F)N1CC(O)([C@@H]2CCCCN2)C1 + C=CC(=O)N1CCN(c2nc(OCC3CCCN3C)nc3c(F)c(-c4nc(N)cc(C)c4C(F)(F)F)c(Cl)cc23)C(C)C1 showed an IC50 [1] of 28.6 nM, an IC50 [2] of 27.8 nM and an IC50 [3] of 31.1 nM. The IC50 [4] was 29.1 nM, the IC50 [5] was 34.4 nM and the IC50 [6] was 49.6 nM. It also gave a viability, T/C (second compound 0.00316 µM, first compound 0.00316 µM) of 106%, a viability, T/C (second compound 0.00316 µM, first compound 0.01 µM) of 60.2% and a viability, T/C [7] of 56.9%. It also gave a viability, T/C [8] of 30.1%, a viability, T/C [9] of 24.3% and a viability, T/C [10] of 8.78%. The viability, T/C (second compound 0.01 µM, first compound 0.00316 µM) was 99.8%, the viability, T/C (second compound 0.01 µM, first compound 0.01 µM) was 71.6% and the viability, T/C [11] was 44.8%. For the same compound, the viability, T/C [12] was 29.5%, the viability, T/C [13] was 26.1% and the viability, T/C [14] was 8.23%. It also gave a viability, T/C (second compound 0.0316 µM, first compound 0.00316 µM) of 90.9%, a viability, T/C (second compound 0.0316 µM, first compound 0.01 µM) of 73.1% and a viability, T/C [15] of 47.8%. For the same compound, the viability, T/C [16] was 29.8%, the viability, T/C [17] was 23.1% and the viability, T/C [18] was 7.64%. For the same compound, the viability, T/C (second compound 0.1 µM, first compound 0.00316 µM) was 86%, the viability, T/C (second compound 0.1 µM, first compound 0.01 µM) was 72.3% and the viability, T/C [19] was 44.6%. For the same compound, the viability, T/C [20] was 30.4%, the viability, T/C [21] was 25.3% and the viability, T/C [22] was 8.95%. The viability, T/C (second compound 0.316 µM, first compound 0.00316 µM) was 85.8%, the viability, T/C (second compound 0.316 µM, first compound 0.01 µM) was 68.6% and the viability, T/C [23] was 50.5%. The viability, T/C [24] was 33.1%, the viability, T/C [25] was 26.8% and the viability, T/C [26] was 8.9%. The viability, T/C (second compound 1 µM, first compound 0.00316 µM) was 91.6%, the viability, T/C (second compound 1 µM, first compound 0.01 µM) was 65.5% and the viability, T/C [27] was 52.7%. It also gave a viability, T/C [28] of 47.3%, a viability, T/C [29] of 27.6% and a viability, T/C [30] of 11.4%.
CC(=O)OC12COC1CC(O)C1(C)C(=O)C(O)C3=C(C)C(OC(=O)C(O)C(NC(=O)OC(C)(C)C)c4ccccc4)CC(O)(C(OC(=O)c4ccccc4)C21)C3(C)C (stereo not given) + C=CC(=O)N1CCN(c2nc(OCC3CCCN3C)nc3c(F)c(-c4nc(N)cc(C)c4C(F)(F)F)c(Cl)cc23)C(C)C1 was tested, and the IC50 [1] was under 31.6 nM, the IC50 [2] was under 31.6 nM and the IC50 [3] was under 31.6 nM. The IC50 [4] was under 31.6 nM, the IC50 [5] was under 31.6 nM and the IC50 [6] was under 31.6 nM. It also gave a viability, T/C [7] of 14.1%, a viability, T/C [8] of 12.1% and a viability, T/C [9] of 13.5%. The viability, T/C [10] was 12.9%, the viability, T/C (second compound 0.00316 µM, first compound 3.16 µM) was 13.9% and the viability, T/C (second compound 0.00316 µM, first compound 10 µM) was 18.2%. It also gave a viability, T/C [11] of 11.4%, a viability, T/C [12] of 10.3% and a viability, T/C [13] of 11.2%. For the same compound, the viability, T/C [14] was 11.9%, the viability, T/C (second compound 0.01 µM, first compound 3.16 µM) was 11.9% and the viability, T/C (second compound 0.01 µM, first compound 10 µM) was 21.3%. For the same compound, the viability, T/C [15] was 13.2%, the viability, T/C [16] was 9.68% and the viability, T/C [17] was 12.2%. The viability, T/C [18] was 16%, the viability, T/C (second compound 0.0316 µM, first compound 3.16 µM) was 16.2% and the viability, T/C (second compound 0.0316 µM, first compound 10 µM) was 19.9%. The viability, T/C [19] was 10.6%, the viability, T/C [20] was 10.8% and the viability, T/C [21] was 13.7%. It also gave a viability, T/C [22] of 10%, a viability, T/C (second compound 0.1 µM, first compound 3.16 µM) of 17.6% and a viability, T/C (second compound 0.1 µM, first compound 10 µM) of 20.2%. For the same compound, the viability, T/C [23] was 9.72%, the viability, T/C [24] was 13.7% and the viability, T/C [25] was 11.7%. The viability, T/C [26] was 13%, the viability, T/C (second compound 0.316 µM, first compound 3.16 µM) was 22.9% and the viability, T/C (second compound 0.316 µM, first compound 10 µM) was 28.2%. For the same compound, the viability, T/C [27] was 12.8%, the viability, T/C [28] was 15.1% and the viability, T/C [29] was 16.3%. The viability, T/C [30] was 12.6%, the viability, T/C (second compound 1 µM, first compound 3.16 µM) was 17.3% and the viability, T/C (second compound 1 µM, first compound 10 µM) was 23.5%.
O=C(c1ccc(F)c(F)c1Nc1ccc(I)cc1F)N1CC(O)([C@@H]2CCCCN2)C1 was tested, and the viability, T/C (compound 0.00316 µM) was 98.9% [middle of 4 runs], the viability, T/C (compound 0.01 µM) was 69.2% [middle of 4 runs] and the viability, T/C (compound 0.0316 µM) was 54.5% [middle of 4 runs]. For the same compound, the viability, T/C (compound 0.1 µM) was 36.6% [middle of 4 runs], the viability, T/C (compound 0.316 µM) was 26.7% [middle of 4 runs] and the viability, T/C (compound 1 µM) was 11.3% [middle of 4 runs]. The IC50 (curve of compound) was 42.7 nM [middle of 4 runs].
